The assay concerns the target Quinolone signal response protein (Pseudomonas aeruginosa, UniProt A0A072ZMX8). In words: Isothermal Titration Calorimetry (ITC). As to conditions: 14 °C. As for the experimental part: ITC titrations were performed using an ITC200 instrument (Microcal Inc.,Malvern). DMSO stock solutions (20 mM) of fragments were diluted 1:20 (v/v) into ITC titration buffer (50 mM tricine, 2 mM MnCl2, pH = 8.5) to give a 1 mM final compound concentration at 5% (v/v) DMSO. Aliquots of the same buffer batch (stored at […]) were used as for protein storage to avoid a buffer mismatch. H6PqsE was diluted in the same buffer to 100 μM, and DMSO concentration was adjusted to 5% (v/v). Titrations were carried out at 298 K using 19 injections of 2 μL every 180 s. Areas under the peaks were integrated. Baseline peaks at the endof a titration accounting for the heat of dilution and mixing were subtracted from the measurement. Data were fitted to a 1:1 binding model (MicroCal Origin 7 software).
A general note: Isothermal titration calorimetry measures the heat released or taken up as one component is titrated into another.

Quinolone signal response protein, sequence (A0A072ZMX8 whole entry, the tested form may be a part): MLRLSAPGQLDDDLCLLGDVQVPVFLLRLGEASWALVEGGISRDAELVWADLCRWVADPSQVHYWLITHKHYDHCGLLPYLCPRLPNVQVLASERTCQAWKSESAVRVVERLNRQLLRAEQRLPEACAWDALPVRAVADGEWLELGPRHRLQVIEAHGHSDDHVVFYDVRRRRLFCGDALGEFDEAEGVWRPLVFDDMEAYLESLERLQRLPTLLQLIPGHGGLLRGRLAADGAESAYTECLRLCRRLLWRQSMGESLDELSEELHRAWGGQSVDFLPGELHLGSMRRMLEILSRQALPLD

As usually defined, the Kd is the free concentration of one partner at which half of the binding sites on the other are occupied at equilibrium, for simple one-to-one binding. `Cc1ccsc1C(=O)O` [AC30341 (3)] came in with a dissociation constant Kd of 19.6 µM.

Consider `O=C(O)c1ccccc1-c1cccnc1` [CC41801 (1)], for which the Kd is 0.9 µM.

(Values after BindingDB's records for doi:10.1021/acschembio.6b00156 (Helmholtz-Institute For Pharmaceutical Research Saarland, 2016).)
